Laboratory results as given in ChEMBL document CHEMBL4396865, “Current advances of triazole alcohols derived from fluconazole: Design, in vitro and in silico studies” (2019).
≈ marks a conversion by molar mass, not a printed value.

Assays:
Assay type in all cases: functional
[1] = tested on: Candida albicans; assay: Antifungal activity against Candida albicans; details: Candida albicans; for MIC: read-out: MIC
[2] = tested on: Candida albicans; assay: Antifungal activity against Candida albicans infected in Caenorhabditis elegans assessed as survival at 16 ug/ml relative to control
[3] = tested on: Candida parapsilosis; assay: Antifungal activity against Candida parapsilosis; details: Lodderomyces parapsilosis
[4] = tested on: Cryptococcus neoformans; assay: Antifungal activity against Cryptococcus neoformans; details: Cryptococcus neoformans
[5] = tested on: Trichophyton rubrum; assay: Potency index, ratio of fluconazole MIC80 to test compound MIC80 for Trichophyton rubrum
[6] = tested on: Nannizzia gypsea; assay: Potency index, ratio of fluconazole MIC80 to test compound MIC80 for Microsporum gypseum
[7] = tested on: Candida albicans; assay: Antifungal activity against Candida albicans after 24 hrs by NCCLS protocol based method
[8] = tested on: Candida tropicalis; assay: Antifungal activity against Candida tropicalis after 24 hrs by NCCLS protocol based method
[9] = tested on: Cryptococcus neoformans; assay: Antifungal activity against Cryptococcus neoformans after 72 hrs by NCCLS protocol based method
[10] = tested on: Trichophyton rubrum; assay: Antifungal activity against Trichophyton rubrum after 7 days by NCCLS protocol based method; details: 168 h
[11] = tested on: Nannizzia gypsea; assay: Antifungal activity against Microsporum gypseum after 7 days by NCCLS protocol based method; details: 168 h
[12] = tested on: Candida tropicalis; assay: Antifungal activity against Candida tropicalis; details: Candida tropicalis; read-out: MIC
[13] = tested on: Kluyveromyces marxianus; assay: Antifungal activity against Candida kefyr; details: Kluyveromyces marxianus; read-out: MIC
[14] = tested on: Trichophyton rubrum; assay: Antifungal activity against Trichophyton rubrum; details: Trichophyton rubrum; read-out: MIC
[15] = tested on: Aspergillus fumigatus; assay: Antifungal activity against Aspergillus fumigatus; details: Aspergillus fumigatus
[16] = tested on: Candida tropicalis; assay: Antifungal activity against Candida tropicalis after 24 hrs by microbroth dilution method
[17] = tested on: Trichophyton rubrum; assay: Antifungal activity against Trichophyton rubrum after 24 hrs by microbroth dilution method
[18] = tested on: Microsporum canis; assay: Antifungal activity against Microsporum canis after 24 hrs by microbroth dilution method
[19] = tested on: Fonsecaea compacta; assay: Antifungal activity against Fonsecaea compacta after 24 hrs by microbroth dilution method
[20] = tested on: Aspergillus fumigatus; assay: Antifungal activity against Aspergillus fumigatus after 24 hrs by microbroth dilution method
[21] = tested on: Candida albicans; assay: Antifungal activity against fluconalzole-susceptible Candida albicans after 24 hrs
[22] = tested on: Candida parapsilosis; assay: Antifungal activity against fluconalzole-susceptible Candida parapsilosis after 24 hrs; details: Lodderomyces parapsilosis
[23] = tested on: Candida albicans; assay: Antifungal activity against Candida albicans ATCC SC5314 after 24 hrs; details: ATCC SC5314, 24 h
[24] = tested on: Candida parapsilosis; assay: Antifungal activity against Candida parapsilosis after 24 hrs; details: Lodderomyces parapsilosis
[25] = tested on: Pichia kudriavzevii; assay: Antifungal activity against Candida krusei after 24 hrs
[26] = tested on: Cryptococcus neoformans; assay: Antifungal activity against Cryptococcus neoformans after 24 hrs
[27] = tested on: Nannizzia gypsea; assay: Antifungal activity against Microsporum gypseum after 24 hrs
[28] = tested on: Trichophyton rubrum; assay: Antifungal activity against Trichophyton rubrum after 24 hrs
[29] = tested on: Aspergillus fumigatus; assay: Antifungal activity against Aspergillus fumigatus after 24 hrs
[30] = tested on: Candida albicans; assay: Antifungal activity against Candida albicans Y0109 after 24 hrs; details: Y0109, 24 h
[31] = tested on: Candida albicans; assay: Antifungal activity against Candida albicans infected in Caenorhabditis elegans assessed as survival at 32 ug/ml relative to control
[32] = tested on: Cryptococcus neoformans; assay: Potency index, ratio of fluconazole MIC to test compound MIC for Cryptococcus neoformans infected in Caenorhabditis elegans
[33] = tested on: Cryptococcus neoformans; assay: Antifungal activity against Cryptococcus neoformans infected in Caenorhabditis elegans
[34] = tested on: Pichia norvegensis; assay: Antifungal activity against Candida mycoderma
[35] = tested on: Candida albicans; assay: Antifungal activity against fluconalzole-resistant Candida albicans after 24 hrs
[36] = tested on: Candida parapsilosis; assay: Antifungal activity against fluconalzole-resistant Candida parapsilosis after 24 hrs; details: Lodderomyces parapsilosis
[37] = tested on: Pichia kudriavzevii; assay: Antifungal activity against Candida krusei
[38] = tested on: Candida albicans; assay: Potency index, ratio of fluconazole MIC to test compound MIC for Candida albicans
[39] = tested on: Pichia kudriavzevii; assay: Potency index, ratio of fluconazole MIC to test compound MIC for Candida krusei
[40] = tested on: Candida albicans; assay: Antifungal activity against Candida albicans after 48 hrs by NCCLS protocol based method
[41] = tested on: Candida parapsilosis; assay: Antifungal activity against Candida parapsilosis after 48 hrs by NCCLS protocol based method; details: Lodderomyces parapsilosis

OC(Cn1cncn1)(Cn1cc(C2CC2)nn1)c1ccc(F)cc1F (stereo not drawn)
MIC [1]: 0.125 µg/mL (≈ 0.361 µM)
survival at 16 µg/mL [2]: 70%

OC(CN1CCN(Cc2cn(Cc3ccc(Br)cc3)nn2)CC1)(Cn1cncn1)c1ccc(F)cc1F (stereo not drawn)
MIC80 [1]: ≤ 0.5 µg/mL
MIC80 [3]: ≤ 0.5 µg/mL
MIC80 [4]: ≤ 0.5 µg/mL
Ratio [5]: 4 - 128
Ratio [6]: 4 - 128

OC(Cn1cncn1)(Cn1cncn1)c1ccc(F)cc1F [FLUCONAZOLE]
MIC [7]: 0.5 µg/mL (≈ 1.63 µM)
MIC [8]: 0.5 µg/mL (≈ 1.63 µM)
MIC [9]: 0.5 µg/mL (≈ 1.63 µM)
MIC [10]: 0.5 µg/mL (≈ 1.63 µM)
MIC [11]: 0.5 µg/mL (≈ 1.63 µM)
MIC [1]: 0.5 µg/mL (≈ 1.63 µM)
MIC ([3]; read-out: MIC): 1 µg/mL (≈ 3.27 µM)
MIC [12]: 0.125 to 8 µg/mL (≈ 0.408 to 26.1 µM)
MIC [13]: 0.125 to 8 µg/mL (≈ 0.408 to 26.1 µM)
MIC ([4]; read-out: MIC): 1 µg/mL (≈ 3.27 µM)
MIC [14]: 0.125 to 8 µg/mL (≈ 0.408 to 26.1 µM)
MIC80 [15]: > 200 µM
MIC80 [16]: ≥ 0.5 µg/mL
MIC80 [17]: ≥ 0.5 µg/mL
MIC80 [18]: ≥ 0.5 µg/mL
MIC80 [19]: ≥ 0.5 µg/mL
MIC80 [20]: ≥ 0.5 µg/mL
MIC [21]: 0.5 to 4 µg/mL (≈ 1.63 to 13.1 µM)
MIC [22]: 0.5 to 4 µg/mL (≈ 1.63 to 13.1 µM)
MIC [23]: ≥ 64 µg/mL
MIC [24]: ≥ 64 µg/mL
MIC [25]: ≥ 64 µg/mL
MIC [26]: ≥ 64 µg/mL
MIC [27]: ≥ 64 µg/mL
MIC [28]: ≥ 64 µg/mL
MIC [29]: ≥ 64 µg/mL
MIC [30]: ≥ 64 µg/mL
survival at 32 µg/mL [31]: 60%

OC(Cc1cn(C2CCCC2)nn1)(Cn1cncn1)c1ccc(F)cc1F (stereo not drawn)
Ratio [32]: 8
MIC [33]: 0.25 µg/mL (≈ 0.668 µM)

O=C(O)c1cn(C2CC2)c2c(Cl)c(N3CCC(NCC(O)(Cn4cncn4)c4ccc(F)cc4F)C3)c(F)cc2c1=O (stereo not drawn)
MIC [1]: 0.25 to 2 µg/mL (≈ 0.415 to 3.32 µM)
MIC [34]: 0.25 to 2 µg/mL (≈ 0.415 to 3.32 µM)

O=C(O)c1cn(C2CC2)c2c(Cl)c(N3CCC(NCC(O)(Cn4cncn4)c4ccc(F)cc4)C3)c(F)cc2c1=O (stereo not drawn)
MIC [1]: 0.25 to 2 µg/mL (≈ 0.427 to 3.42 µM)
MIC [34]: 0.25 to 2 µg/mL (≈ 0.427 to 3.42 µM)

OC(Cc1cn(CCOCc2ccc(Br)cc2)nn1)(Cn1cncn1)c1ccc(F)cc1F (stereo not drawn)
MIC [23]: 0.0156 to 0.0625 µg/mL (≈ 0.03 to 0.12 µM)
MIC [24]: 0.0156 to 0.0625 µg/mL (≈ 0.03 to 0.12 µM)
MIC [25]: 0.0156 to 0.0625 µg/mL (≈ 0.03 to 0.12 µM)
MIC [26]: 0.0156 to 0.0625 µg/mL (≈ 0.03 to 0.12 µM)
MIC [27]: 0.0156 to 0.0625 µg/mL (≈ 0.03 to 0.12 µM)
MIC [28]: 0.0156 to 0.0625 µg/mL (≈ 0.03 to 0.12 µM)
MIC [29]: 0.0156 to 0.0625 µg/mL (≈ 0.03 to 0.12 µM)
MIC [30]: 0.0156 to 0.0625 µg/mL (≈ 0.03 to 0.12 µM)

O=C(O)c1cn(C2CC2)c2c(Cl)c(N3CCC(NCC(O)(Cn4cncn4)c4ccc(Cl)c(Cl)c4)C3)c(F)cc2c1=O (stereo not drawn)
MIC [1]: 0.25 to 2 µg/mL (≈ 0.393 to 3.15 µM)
MIC [34]: 0.25 to 2 µg/mL (≈ 0.393 to 3.15 µM)

O=C(O)c1cn(C2CC2)c2c(Cl)c(N3CCC(NCC(O)(Cn4cncn4)c4ccc(F)c(F)c4)C3)c(F)cc2c1=O (stereo not drawn)
MIC [1]: 0.25 to 2 µg/mL (≈ 0.415 to 3.32 µM)
MIC [34]: 0.25 to 2 µg/mL (≈ 0.415 to 3.32 µM)

OC(Cn1cncn1)(Cn1cnc(SCc2cccc(Cl)c2)n1)c1ccc(F)cc1F (stereo not drawn)
MIC [21]: 0.063 to 1 µg/mL (≈ 0.136 to 2.16 µM)
MIC [22]: 0.063 to 1 µg/mL (≈ 0.136 to 2.16 µM)
MIC [35]: 0.125 to 16 µg/mL (≈ 0.27 to 34.6 µM)
MIC [36]: 0.125 to 16 µg/mL (≈ 0.27 to 34.6 µM)

C#CCN(Cc1ccc(F)cc1F)CC(O)(Cn1cncn1)c1ccc(F)cc1F (stereo not drawn)
MIC80 [1]: 0.00097 µg/mL (≈ 0.00232 µM)
MIC80 [37]: 0.00097 µg/mL (≈ 0.00232 µM)
Ratio [38]: 515
Ratio [39]: 64

COC(=O)CC[C@@H](C)[C@H]1CC[C@H]2[C@@H]3[C@H](O)C[C@@H]4C[C@@H](n5cc(CC(O)(Cn6cncn6)c6ccc(F)cc6F)nn5)CC[C@]4(C)[C@H]3C[C@H](O)[C@]12C (stereo partly drawn)
MIC [40]: 3.12 to 6.25 µg/mL (≈ 4.39 to 8.79 µM)
MIC [41]: 3.12 to 6.25 µg/mL (≈ 4.39 to 8.79 µM)
